The values that follow come from US20250134855A1, “CO[…] AND METHODS OF USING SAME” (LYKOS THERAPEUTICS, INC., priority 2022, published 2025).

Molecules are shown by their SMILES. Where a name gives a salt, the structure may show the parent alone. Read-outs that look alike come from different tables or passages of the source. Where only a bound is given, the exact number is not on record here.

A short description of data set [1]: Particle size of MDMA measured by laser diffraction. In kind it is physicochemical.
Data set [2] is described as follows: Study MPKF: plasma pharmacokinetics of MDMA and MDA, single 120 mg MDMA·HCl, fasted/fed. In kind it is in vivo, human. The following applies: for Vd: read-out: volume of distribution. An excerpt:
(§1) The MPKF was a Phase 1, open-label, randomized sequence, multi-dose, 2-period crossover food effect study in 16 healthy individuals. The MPKF study evaluated plasma concentrations of both MDMA and the active metabolite 3,4-methylenedioxyamphetamine (MDA). Summary PK Parameters of the preliminary data was based on interim analysis are presented in Table 12 Table 12 Table 12, and Table 13 Table 13 Table 13 for MDMA and MDA, respectively.
Participants were randomized to receive 1 of 2 conditions before the other: • Fasted Treatment: at least 10 hours of fasting followed by administration of MDMA HCl with 240 mL water. • Fed Treatment: at least 10 hours of fasting followed by a high-fat (approximately 50% of total caloric content of the meal) and high-calorie (approximately 800 to 1000 calories) meal was consumed within 30 minutes prior to IMP administration.
(§2) Participants remained at the clinical research unit (CRU) for each Dosing Session from the time of check-in on the night before dosing until discharge 48 hours after dosing for collection of serial blood samples for PK analysis and safety monitoring. IMP was administered on Day 1 following the treatment sequence to which the participant was randomized. An additional outpatient visit occurred 72 hours after dosing to collect a final PK sample, commensurate with the expected PK profiles of MDMA and MDA. Safety assessments were also performed at this visit.
(§3) The washout period between Dosing Sessions was at least 14 days. If a participant experienced emesis within 4 hours of administration, they were to be withdrawn from the study and replaced with a new participant. An End of Study Visit was performed 2 to 10 days after the completion of the final Dosing Session 72-hour follow-up. An informal interim analysis was planned to be conducted after at least 5 participants completed at least 1 Dosing Session to examine PK variability.
The API was a white crystalline powder of pharmaceutical quality, made according to current Good Manufacturing Practices (cGMP) for human use.
Participants: Sixteen healthy individuals were recruited for the study.
Intervention: The study was conducted as a Phase 1, open-label, randomized sequence, multi-dose, 2-period crossover food effect study. Each participant received multiple doses of MDMA, and plasma concentrations of both MDMA and the active metabolite MDA were measured.
Sample Collection: Blood samples were collected at various time points up to 72 hours after dosing. The samples were analyzed using validated liquid chromatography-tandem mass spectrometry (LC-MS/MS) methods.
Data Analysis: The summary PK parameters were presented in Table 12 for MDMA and Table 13 for MDA. The data were analyzed using descriptive statistics, and the mean and standard deviation were calculated. The results were compared between the two periods and analyzed for food effects. Statistical analyses were performed using appropriate methods, such as analysis of variance (ANOVA) and paired t-tests. A p-value of less than 0.05 was considered statistically significant.

Another data set deals with CYP2D6 (Homo sapiens, UniProt P10635). Put plainly: CYP2D6 inhibition.
Chain of CYP2D6 (P10635 whole entry): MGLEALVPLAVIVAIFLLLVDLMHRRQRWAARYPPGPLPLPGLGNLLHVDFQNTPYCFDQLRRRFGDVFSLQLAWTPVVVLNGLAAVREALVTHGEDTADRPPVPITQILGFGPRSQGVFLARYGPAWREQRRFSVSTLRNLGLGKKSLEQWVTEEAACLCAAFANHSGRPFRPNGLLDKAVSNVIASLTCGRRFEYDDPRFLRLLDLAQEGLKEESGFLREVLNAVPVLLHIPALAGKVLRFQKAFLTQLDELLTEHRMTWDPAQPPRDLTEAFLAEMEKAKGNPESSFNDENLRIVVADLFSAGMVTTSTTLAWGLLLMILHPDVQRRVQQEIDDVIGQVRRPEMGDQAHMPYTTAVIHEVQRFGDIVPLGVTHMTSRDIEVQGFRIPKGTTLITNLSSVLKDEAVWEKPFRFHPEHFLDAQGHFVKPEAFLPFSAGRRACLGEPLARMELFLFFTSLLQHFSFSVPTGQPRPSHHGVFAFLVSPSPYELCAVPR
The test system of a further data set is CYPs. Put plainly: CYP induction and inhibition of CYPs other than CYP2D6.
Data set [3] in a line: Stress-tests of thermal stability of MDMA·HCl. To be noted: 70-80° C.
The test system of the next data set is healthy individuals. The experiment in a line: Study MPKF: safety and tolerability (AEs, laboratory, vital signs). In kind it is in vivo, human.
Description: as §1, §2, §3

In the next data set the test system is healthy subjects. The experiment in a line: QTc interval, randomized crossover study. In kind it is in vivo, human. As for the experimental part: The effect of MDMA·HCl on the QTc interval was evaluated in a randomized, crossover study in N healthy subjects.
The nature of data set [4]: Forced degradation and storage stability of MDMA·HCl API. In kind it is physicochemical. An excerpt:
The crystalline, anhydrous form (Form 1) of MDMA·HCl is used for clinical development and commercialization purpose.
The long-term chemical stability of MDMA·HCl, Form I appears in FIG. 9 and FIG. 10.

The nature of data set [5]: Solubility and permeability of MDMA·HCl.
The conditions of data set [6]: paroxetine 20 mg a day for three days; single 100 mg dose of MDMA; cited from earlier work.
For data set [7] the following is noted: cited from earlier work.

As for `CNC(C)Cc1ccc2c(c1)OCO2.Cl` (stereo not drawn) [Input 201101], in data set [1], the Dv10 came to 376 μm, the Dv50 worked out at 512 μm and the Dv90 was 844 μm.

For `CNC(C)Cc1ccc2c(c1)OCO2.Cl` (stereo not drawn) [CJS194-1], in [1], the Dv10 came to 29.0 μm, the Dv50 was 170 μm and the Dv90 turned out to be 342 μm.

Regarding `CNC(C)Cc1ccc2c(c1)OCO2` (stereo not drawn) [MDMA·HCl, MDMA hydrochloride], the “effect of food on exposure” value in [2] (high-fat meal vs fasting, single 120 mg MDMA·HCl) is listed as “not affected by food”. The half-life in [2] (human, plasma, oral, 120 mg, single 120 mg dose of MDMA·HCl, fasting, read-out: t1/2 (converted)) is 540 min. Besides, in data set [2] (human, plasma, oral, single 100 mg dose of MDMA·HCl), the Vd amounted to 372 L. Moreover, the Vd in [2] (human, plasma, oral, single 120 mg dose of MDMA·HCl) came out at 430 L. For the same molecule, the CYP2D6 inhibition entry on CYP2D6 is given as “strong CYP2D6 inhibitor”. In addition, the “induction of CYPs” value with CYPs was “not an inducer of CYPs”. Besides, in the data set on CYPs (human), the “inhibition of CYPs other than CYP2D6” value is “did not inhibit CYPs other than CYP2D6 in a clinically meaningful manner”. Moreover, the “stability in stress-tests, duration” value in data set [3] stood at 72 h. For the same molecule, the “participants with nausea and vomiting” value in the data set with healthy individuals (fasted session) amounted to 12.5%. Moreover, the “SAEs and AESI” value in the data set on healthy individuals (in vivo) is recorded as “No SAEs nor AESI were reported”. Further, in the data set on healthy individuals (single dose of 120 mg MDMA HCl), the overall tolerability entry is on record as “well tolerated”, the “participants reporting TEAEs” value amounted to 37.5% and the participants with headache is listed as 31.3%. Further, the “increase in heart rate” value with healthy subjects (healthy subjects) was over 10 bpm. Further, the QTc prolongation result in the data set with healthy subjects (therapeutic dose, totality of nonclinical and clinical data) is recorded as “lack of clinically relevant QTc prolongation”. In data set [4] (25 degrees celsius at 60% RH, no change in appearance or increase in degradation products), the “time over which long term chemical stability remains constant” value was “up to 60 months”. Besides, the forced degradation result in data set [4] (7 days (FIG. 8)) is listed as “minimal degradation”. Moreover, the “time over which chemical stability is not affected” value in [4] (higher humidity and temperature, 40 degrees celsius at 75% RH (FIG. 11)) was “up to 12 months”. Further, in data set [5], the solubility result is “high”. In addition, the permeability result in data set [5] (not told) is given as “high”.

In data set [1], `CNC(C)Cc1ccc2c(c1)OCO2.Cl` (stereo not drawn) [CJS194-2] displayed a Dv10 of 20.0 μm, a Dv50 of 135 μm and a Dv90 of 326 μm.

In [1], `CNC(C)Cc1ccc2c(c1)OCO2.Cl` (stereo not drawn) [CJS194-5] returned a Dv10 of 23.4 μm, a Dv50 of 151 μm and a Dv90 of 341 μm.

In data set [1], `CNC(C)Cc1ccc2c(c1)OCO2.Cl` (stereo not drawn) [CJS194-3] displayed a Dv10 of 20.9 μm, a Dv50 of 134 μm and a Dv90 of 326 μm.

On to `Fc1ccc([C@@H]2CCNC[C@H]2COc2ccc3c(c2)OCO3)cc1` [Paroxetine, reference compound], for which, in data set [6], the “increase of AUC0-inf of MDMA” value is 27% and the “increase of Cmax of MDMA” value was 17%.

As for `CNC(C)Cc1ccc2c(c1)OCO2.Cl` (stereo not drawn) [CJS194-4], in data set [1], the Dv10 was 23.8 μm, the Dv50 was determined as 161 μm and the Dv90 is on record as 353 μm.

`CNC(C)Cc1ccc2c(c1)OCO2.Cl` (stereo not drawn) [Form III]: the “time to spontaneous conversion to Form I” value in data set [7] (storage at ambient conditions) is listed as 2.5 weeks.

On to `CNC(C)Cc1ccc2c(c1)OCO2.Cl` (stereo not drawn) [Form I], for which the “relative stability of Forms I-III” value in data set [7] (polymorphic screening) is on record as “most stable of Forms I-III”.
